Like-named read-outs stand apart in the source and are kept apart here.
Tests used:
[1] = tested on: poly(ADP-ribose)polymerase (PARP) cleavage fragment; assay: PARP cleavage by western blot (induction of apoptosis); type: cell-based, human; conditions: K562 cells; FIG. 4 legend: MCF7 cells, 72 h
Description: For direct immunoblotting, total cellular protein lysates were prepared by harvesting treated cells in Laemmli sample buffer. […] The probing with anti-PARP monoclonal antibody (clone C-2-10) diluted 1:1000 lasted for 2 h at 22° C. After washing three times in PBS-T, the membrane was incubated with a 1:1000 dilution of peroxidase conjugated rabbit antimouse immunoglobulin. After another three washes in PBS-T, peroxidase activity was detected by ECL chemiluminiscence reagents (Amersham) according to the manufacturer's instructions. After a longer incubation period (48-72 h) the cells started to die, with the some morphological features typical for apoptosis. […] The induction of apoptosis was therefore verified by the detection of a poly(ADP-ribose)polymerase (PARP) cleavage fragment. PARP is specifically cleaved as a result of activation of upstream proapoptotic caspases into 89 kDa and 27 kDa peptides.

GSK3β = GSK3β (Homo sapiens, UniProt P49841); assay: Kinase selectivity panel; type: biochemical; conditions: in the presence of 10 μM compound
GSK3β, sequence (P49841 whole entry): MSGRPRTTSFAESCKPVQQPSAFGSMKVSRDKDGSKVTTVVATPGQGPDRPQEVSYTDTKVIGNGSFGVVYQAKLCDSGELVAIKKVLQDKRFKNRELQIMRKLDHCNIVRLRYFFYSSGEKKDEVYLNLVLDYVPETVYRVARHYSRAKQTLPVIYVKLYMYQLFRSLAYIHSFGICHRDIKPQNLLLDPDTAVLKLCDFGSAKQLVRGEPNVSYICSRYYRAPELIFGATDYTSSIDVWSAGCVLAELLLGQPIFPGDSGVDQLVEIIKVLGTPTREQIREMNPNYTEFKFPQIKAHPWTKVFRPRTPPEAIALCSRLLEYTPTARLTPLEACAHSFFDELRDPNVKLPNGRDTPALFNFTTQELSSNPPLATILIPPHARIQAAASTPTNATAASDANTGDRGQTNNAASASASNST

CK2 = CK2 (Homo sapiens, UniProt P68400); assay: Kinase selectivity panel; type: biochemical; conditions: in the presence of 10 μM compound
CK2, sequence (P68400 whole entry): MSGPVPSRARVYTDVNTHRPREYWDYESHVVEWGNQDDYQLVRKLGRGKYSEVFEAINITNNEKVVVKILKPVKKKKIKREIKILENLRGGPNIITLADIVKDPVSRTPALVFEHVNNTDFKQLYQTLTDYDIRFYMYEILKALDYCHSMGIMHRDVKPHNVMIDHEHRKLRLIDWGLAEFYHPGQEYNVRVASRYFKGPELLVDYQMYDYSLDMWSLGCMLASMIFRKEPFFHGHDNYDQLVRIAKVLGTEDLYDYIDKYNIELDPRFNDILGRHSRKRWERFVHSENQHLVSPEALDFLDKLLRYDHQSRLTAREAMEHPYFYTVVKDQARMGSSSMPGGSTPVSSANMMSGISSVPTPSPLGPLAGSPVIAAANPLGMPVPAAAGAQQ

CDK7/cyclin H = CDK7/cyclin H (Homo sapiens, UniProt P50613); assay: Kinase selectivity panel; type: biochemical; conditions: in the presence of 10 μM compound
CDK7/cyclin H, sequence (P50613 whole entry): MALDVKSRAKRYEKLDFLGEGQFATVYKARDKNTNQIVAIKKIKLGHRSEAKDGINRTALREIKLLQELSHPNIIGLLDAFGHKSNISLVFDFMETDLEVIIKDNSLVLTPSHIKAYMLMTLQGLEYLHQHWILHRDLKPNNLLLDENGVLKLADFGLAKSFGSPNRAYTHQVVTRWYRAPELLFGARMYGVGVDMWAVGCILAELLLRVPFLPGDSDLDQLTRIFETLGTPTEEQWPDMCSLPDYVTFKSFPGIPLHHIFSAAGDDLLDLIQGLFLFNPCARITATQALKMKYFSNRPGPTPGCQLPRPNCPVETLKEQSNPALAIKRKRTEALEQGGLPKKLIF
CDK7/cyclin H, sequence (P51946 whole entry partner): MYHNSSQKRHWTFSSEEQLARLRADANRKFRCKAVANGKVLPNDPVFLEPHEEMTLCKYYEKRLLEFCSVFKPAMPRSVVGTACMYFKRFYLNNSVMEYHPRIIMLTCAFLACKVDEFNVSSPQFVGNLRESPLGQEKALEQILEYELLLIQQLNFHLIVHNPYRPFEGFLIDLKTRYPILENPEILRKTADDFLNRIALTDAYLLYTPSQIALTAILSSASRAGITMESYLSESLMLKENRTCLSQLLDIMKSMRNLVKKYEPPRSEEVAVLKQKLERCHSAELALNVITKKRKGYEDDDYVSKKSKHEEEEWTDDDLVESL

[2] = In vitro cytotoxicity, Calcein AM, 72 h; type: cell-based, human; conditions: human, at 100 μM
Description: (§1) Tested drugs were added to the cell cultures in six different concentration and kept at 37° C. and 5% CO2 for three days.
(§2) The cells, cultured in DMEM (supplemented with 10% fetal calf serum, 4 mM glutamine, 100 IU/ml penicillin, 100 μg/ml streptomycin) in a humidified CO2 incubator at 37° C., were redistributed into 96-well microtitre plates (10.000 cells per well). After 12 h preincubation, tested compounds in six-fold dilutions were added. Treatment of cells with the tested compounds (in the 1-100 μM range) lasted for 72 h.

PKBα = PKBα (Homo sapiens, UniProt P31749); assay: Kinase selectivity panel; type: biochemical; conditions: in the presence of 10 μM compound
MAPK1 [3] = assay: Kinase selectivity panel; type: biochemical, human; conditions: in the presence of 10 μM compound
p70S6K = p70S6K (Homo sapiens, UniProt P23443); assay: Kinase selectivity panel; type: biochemical
p70S6K, sequence (P23443 whole entry): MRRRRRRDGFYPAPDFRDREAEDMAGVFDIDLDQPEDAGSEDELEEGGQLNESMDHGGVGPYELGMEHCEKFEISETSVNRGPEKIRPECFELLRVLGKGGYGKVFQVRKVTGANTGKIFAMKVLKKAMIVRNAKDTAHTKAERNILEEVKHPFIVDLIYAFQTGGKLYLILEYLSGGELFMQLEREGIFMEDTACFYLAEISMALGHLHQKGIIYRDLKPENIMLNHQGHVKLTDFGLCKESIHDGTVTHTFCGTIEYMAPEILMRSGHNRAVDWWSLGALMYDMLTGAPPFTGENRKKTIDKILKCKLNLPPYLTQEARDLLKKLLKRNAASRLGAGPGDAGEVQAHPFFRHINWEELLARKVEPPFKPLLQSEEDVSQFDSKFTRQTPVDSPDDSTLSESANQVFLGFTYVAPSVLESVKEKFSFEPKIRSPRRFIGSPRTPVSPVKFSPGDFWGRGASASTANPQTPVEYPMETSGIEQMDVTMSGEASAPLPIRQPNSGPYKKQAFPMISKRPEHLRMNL

SAPK2α = SAPK2α (Homo sapiens, UniProt Q16539); assay: Kinase selectivity panel; type: biochemical; conditions: in the presence of 10 μM compound
SAPK2α, sequence (Q16539 whole entry): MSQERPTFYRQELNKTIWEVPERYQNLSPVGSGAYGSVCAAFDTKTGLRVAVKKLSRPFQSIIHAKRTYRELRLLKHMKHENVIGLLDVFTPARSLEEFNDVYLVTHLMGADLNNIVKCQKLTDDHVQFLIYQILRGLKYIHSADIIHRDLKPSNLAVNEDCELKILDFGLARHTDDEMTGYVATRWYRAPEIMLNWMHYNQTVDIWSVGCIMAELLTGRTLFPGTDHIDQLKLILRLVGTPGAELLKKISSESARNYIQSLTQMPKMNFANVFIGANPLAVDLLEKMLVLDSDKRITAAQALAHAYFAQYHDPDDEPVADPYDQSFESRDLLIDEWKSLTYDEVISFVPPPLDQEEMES

CDK1/cyclin B = biological target: T1, CDK1/cyclin B (Homo sapiens, UniProt P06493); assay: CDK1/cyclin B kinase inhibition assay (histone H1, [γ-33P]ATP); type: biochemical; conditions: for IC50: averaged from triplicates, 15 μM ATP
T1 construct: made in house; host or cells: Sf9 insect cells (baculovirus co-infection)
T1 sequence (P06493 whole entry): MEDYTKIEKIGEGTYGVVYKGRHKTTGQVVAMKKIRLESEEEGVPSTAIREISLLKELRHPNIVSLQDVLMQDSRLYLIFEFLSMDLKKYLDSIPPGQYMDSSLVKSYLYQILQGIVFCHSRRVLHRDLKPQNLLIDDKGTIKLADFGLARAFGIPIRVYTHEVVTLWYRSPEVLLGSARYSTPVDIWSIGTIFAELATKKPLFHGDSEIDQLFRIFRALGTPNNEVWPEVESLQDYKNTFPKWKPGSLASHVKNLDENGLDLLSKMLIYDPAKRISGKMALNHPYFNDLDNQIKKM
T1 sequence (P14635 whole entry partner): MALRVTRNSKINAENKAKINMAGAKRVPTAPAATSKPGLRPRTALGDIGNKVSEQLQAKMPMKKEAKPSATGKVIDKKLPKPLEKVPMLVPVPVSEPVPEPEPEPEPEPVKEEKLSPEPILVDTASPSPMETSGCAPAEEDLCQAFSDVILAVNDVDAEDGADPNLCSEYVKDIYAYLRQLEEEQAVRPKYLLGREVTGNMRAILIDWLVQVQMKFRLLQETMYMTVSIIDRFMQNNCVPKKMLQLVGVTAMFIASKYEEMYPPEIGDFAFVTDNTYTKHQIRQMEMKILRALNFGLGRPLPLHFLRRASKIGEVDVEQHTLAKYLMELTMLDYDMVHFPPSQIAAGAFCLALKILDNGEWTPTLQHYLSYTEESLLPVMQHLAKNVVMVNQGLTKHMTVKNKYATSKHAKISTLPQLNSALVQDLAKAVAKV
Description: (§3) CDK1/cyclin B and CDK2/cyclin E kinases were produced in Sf9 insect cells coinfected with appropriate baculoviral constructs. The cells were harvested 70 h post infection, incubated in lysis buffer (50 mM Tris pH 7.4, 150 mM NaCl, 5 mM EDTA, 20 mM NaF, 1% Tween 20, 1 mM DTT, 0.1 mM PMSF, 0.5 μg/ml leupeptine, 1 μg/ml aprotonine) for 30 min on ice and the soluble fraction was recovered by centrifugation at 20.000 g for 10 min. The enzymes were purified on NiNTA column (Qiagen), stored at 4° C. and used within a week. To carry out the enzyme inhibition assays under linear conditions, the final point test system for kinase activity measurement was used. Kinase was added to reaction mixture in such a way as to obtain linear activity with respect to the concentration of enzyme and with respect to time. For determination of kinase inhibition the reaction mixture contained 1 mg/ml histone H1 (type III-S, Sigma) in the presence of 15 μM ATP, 0.05 μCi [γ-^33P]ATP and the tested compound in a final volume of 10 μl; all in reaction buffer (50 mM HEPES, 10 mM MgCl2, 5 mM EGTA, 10 mM 2-glycerolphosphate, 1 mM NaF, 1 mM DTT, pH 7.4). After 20 min incubation, the reactions were stopped by the addition of 5 μl of a 3% H3PO4, aliquots were spotted on P-81 phosphocellulose (Whatman, USA) that was subsequently washed 3× with 5% H3PO4 and finally air dried. The measurements of kinase inhibition employed digital image analyzer BAS-1800 (Fujifilm, Japan). Kinase activity was usually expressed as a percentage of maximum activity. […] For the purpose of kinetic analysis, the activity was expressed as arbitrary units (AU) of digital image analyzer signal.

CHK1 = CHK1 (Homo sapiens, UniProt O14757); assay: Kinase selectivity panel; type: biochemical; conditions: in the presence of 10 μM compound
CHK1, sequence (O14757 whole entry): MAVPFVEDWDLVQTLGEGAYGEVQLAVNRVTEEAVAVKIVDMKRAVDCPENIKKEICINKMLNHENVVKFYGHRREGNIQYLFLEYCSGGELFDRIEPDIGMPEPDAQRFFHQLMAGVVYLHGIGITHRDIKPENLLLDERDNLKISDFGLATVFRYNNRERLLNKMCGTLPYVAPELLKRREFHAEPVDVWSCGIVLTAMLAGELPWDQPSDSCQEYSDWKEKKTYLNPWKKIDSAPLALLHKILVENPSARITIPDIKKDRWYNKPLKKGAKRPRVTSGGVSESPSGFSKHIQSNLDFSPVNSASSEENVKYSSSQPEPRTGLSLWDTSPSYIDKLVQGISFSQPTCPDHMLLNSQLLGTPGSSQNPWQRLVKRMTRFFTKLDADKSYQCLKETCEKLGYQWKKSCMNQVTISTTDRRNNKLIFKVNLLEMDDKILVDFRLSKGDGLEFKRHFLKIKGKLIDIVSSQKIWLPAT

c-Abl = c-Abl (Homo sapiens, UniProt P00519); assay: Kinase selectivity panel; type: biochemical; conditions: in the presence of 10 μM compound
c-Abl, sequence (P00519 whole entry): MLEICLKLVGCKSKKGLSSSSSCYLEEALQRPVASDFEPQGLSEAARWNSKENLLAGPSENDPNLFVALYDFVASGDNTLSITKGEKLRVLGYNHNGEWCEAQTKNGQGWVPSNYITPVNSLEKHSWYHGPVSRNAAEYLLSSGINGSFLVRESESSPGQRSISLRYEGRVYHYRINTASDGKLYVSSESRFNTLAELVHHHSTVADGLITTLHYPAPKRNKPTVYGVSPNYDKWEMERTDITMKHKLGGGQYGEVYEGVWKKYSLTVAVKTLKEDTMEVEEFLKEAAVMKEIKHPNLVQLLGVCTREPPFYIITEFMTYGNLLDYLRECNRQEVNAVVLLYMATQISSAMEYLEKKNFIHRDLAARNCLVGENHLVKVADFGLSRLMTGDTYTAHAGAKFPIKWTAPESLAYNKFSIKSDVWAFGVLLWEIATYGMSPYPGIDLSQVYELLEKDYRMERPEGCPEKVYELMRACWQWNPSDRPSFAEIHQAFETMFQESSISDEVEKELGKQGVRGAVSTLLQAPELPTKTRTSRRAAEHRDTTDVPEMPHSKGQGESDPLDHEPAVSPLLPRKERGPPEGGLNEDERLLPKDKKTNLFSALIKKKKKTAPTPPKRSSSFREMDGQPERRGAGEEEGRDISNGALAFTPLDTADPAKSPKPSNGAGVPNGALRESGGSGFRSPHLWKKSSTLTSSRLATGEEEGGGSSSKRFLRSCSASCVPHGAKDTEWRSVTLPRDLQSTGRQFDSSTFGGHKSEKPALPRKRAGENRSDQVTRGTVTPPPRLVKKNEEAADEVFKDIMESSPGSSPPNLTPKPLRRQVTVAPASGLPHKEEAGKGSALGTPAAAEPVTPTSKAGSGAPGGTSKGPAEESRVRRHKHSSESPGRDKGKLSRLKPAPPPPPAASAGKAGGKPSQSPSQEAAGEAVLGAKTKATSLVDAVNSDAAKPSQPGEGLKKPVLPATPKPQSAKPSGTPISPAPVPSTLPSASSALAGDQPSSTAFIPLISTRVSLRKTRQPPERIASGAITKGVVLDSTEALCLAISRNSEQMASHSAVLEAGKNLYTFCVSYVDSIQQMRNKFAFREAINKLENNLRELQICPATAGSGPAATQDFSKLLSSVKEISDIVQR

K562 cell line = assay: Cell cycle analysis by flow cytometry; type: cell-based, human
Description: Taxol (1 μM) treated and control cells were harvested and analyzed simultaneously.
The antiproliferative activity of 4-arylazo-3,5-diaminopyrazoles was subsequently verified by flow cytometry with subconfluent and asynchronously growing K562 cell line. […] The cell cycle block in G2/M was not dominant.
After a longer incubation period (48-72 h) the cells started to die, with the some morphological features typical for apoptosis. […] The induction of apoptosis was therefore verified by the detection of a poly(ADP-ribose)polymerase (PARP) cleavage fragment. PARP is specifically cleaved as a result of activation of upstream proapoptotic caspases into 89 kDa and 27 kDa peptides.

PKA = PKA (Homo sapiens, UniProt P17612); conditions: in the presence of 10 μM compound
CDK2/cyclin E = biological target: T2, CDK2/cyclin E (Homo sapiens, UniProt P24941); assay: CDK2/cyclin E kinase inhibition assay (histone H1, [γ-33P]ATP); type: biochemical; conditions: for IC50: averaged from triplicates, 15 μM ATP
T2 construct: made in house; host or cells: Sf9 insect cells (baculovirus co-infection)
Description: as §3

[4] = tested on: G 361 (human malignant melanoma); assay: In vitro cytotoxicity, Calcein AM, 72 h; type: cell-based; conditions: 72 h; for IC50: Calcein AM, triplicates, read-out: IC50 (μM) G361
Description: as §1, §2

[5] = tested on: MCF7 (human breast adenocarcinoma); assay: In vitro cytotoxicity, Calcein AM, 72 h; type: cell-based; conditions: 72 h; for IC50: Calcein AM, triplicates, read-out: IC50 (μM) MCF7
Description: as §1, §2

[6] = tested on: K562 (human chronic myeloblastic leukemia); assay: In vitro cytotoxicity, Calcein AM, 72 h; type: cell-based; conditions: 72 h; for IC50: Calcein AM, triplicates, read-out: IC50 (μM) K562
Description: as §1, §2

[7] = tested on: HOS (human osteogenic sarcoma); assay: In vitro cytotoxicity, Calcein AM, 72 h; type: cell-based; conditions: for IC50: Calcein AM, triplicates, read-out: IC50 (μM) HOS
Description: as §1, §2

CDK1 and CDK2 = assay: CDK inhibition, for CDK1 and CDK2 together; type: biochemical
Description: as §3, with “After 20 min incubation, the reactions were stopped by the addition of 5 μl of a 3% H3PO4, aliquots were spotted on P-81 phosphocellulose (Whatman, USA) that was subsequently washed 3× with 5% H3PO4 and finally air dried. The measurements of kinase inhibition employed digital image analyzer BAS-1800 (Fujifilm, Japan).” left out

in vitro = type: cell-based; conditions: human
Description: The following cell lines were used: HELA (human cervical carcinoma), MCF7 (human breast adenocarcinoma), NIH 3T3 (mouse fibroblasts), HOS (human osteogenic sarcoma), HL 60 (human promyelocytic leukemia), G 361 (human malignant melanoma), K562 (human chronic myeloblastic leukemia), CEM (human lymphoblastoid leukaemia). Tested drugs were added to the cell cultures in six different concentration and kept at 37° C. and 5% CO2 for three days.
as §2, with “h. At the end of this period, the cells were fed for 1 h with Calcein AM and the fluorescence of the live cells was measured at 485 nm/538 nm (ex/em) with a Fluoroskan Ascent (Labsystems, Finland).” for “h.”

MAPK1 [8] = conditions: Knockaert et al 2000, Cohen 2003; cited from earlier work
CDK7 = CDK7 (Homo sapiens, UniProt P50613); conditions: Knockaert et al 2000, Cohen 2003; cited from earlier work
CDK7, sequence (P50613 whole entry, species assumed): as the sequence (P50613 whole entry) above
CDK7, sequence (P51946 whole entry partner, species assumed): as the sequence (P51946 whole entry partner) above

[9] = G 361 cells (human malignant melanoma), 72 h, read-out: % of viable cells G361
[10] = HOS cells (human osteogenic sarcoma), read-out: % of viable cells HOS
[11] = K562 cells (human chronic myeloblastic leukemia), 72 h, read-out: % of viable cells K562
[12] = MCF7 cells (human breast adenocarcinoma), 72 h, read-out: % of viable cells MCF7
[13] = in the presence of 10 μM compound

SMILES: Nc1n[nH]c(N)c1N=Nc1ccc(O)cc1 [Compound 12b, 3,5-diamino-4-(4-hydroxy)phenylazo-pyrazole]
- PARP cleavage fragment (western blot) [1]: revealed a 89 kDa peptide
- % of kinase activity (GSK3β): 81%
- % of kinase activity (CK2): 65%
- % of kinase activity (CDK7/cyclin H): 71%
- viability at 72 h, 100 µM [2, 9]: 8.3%
- viability at 72 h, 100 µM [2, 10]: 22%
- viability at 72 h, 100 µM [2, 11]: 23%
- viability at 72 h, 100 µM [2, 12]: 20%
- % of kinase activity (PKBα): 105%
- % of kinase activity (MAPK1 [3]): 99%
- IC50 (p70S6K): ~10 µM
- % of kinase activity (p70S6K; [13]): 51%
- % of kinase activity (SAPK2α): 82%
- IC50 (CDK1/cyclin B): 2.1 µM
- % of kinase activity (CDK1/cyclin B; [13]): 19%
- % of kinase activity (CHK1): 89%
- % of kinase activity (c-Abl): 84%
- cell death by western blotting and flow cytometry (K562 cell line; 72 h treatment): significant cell death
- cell cycle distribution (K562 cell line; K562, 50 μM, after 12 h incubation): accumulation of cell population in G1
- sub-G1 peak / fragmented DNA (K562 cell line; K562, longer incubation period (48-72 h)): sub-G1 peak of cell fragments, containing fragmented DNA
- % of kinase activity (PKA): 67%
- IC50 (CDK2/cyclin E): 3.5 µM
- % of kinase activity (CDK2/cyclin E; [13]): 31%

SMILES: Nc1n[nH]c(N)c1N=Nc1ccccc1CO [Compound 16b, 3,5-diamino-4-(2-hydroxymethyl)phenylazo-pyrazole]
- viability at 72 h, 100 µM [2, 9]: 84%
- viability at 72 h, 100 µM [2, 10]: 87%
- viability at 72 h, 100 µM [2, 11]: 86%
- viability at 72 h, 100 µM [2, 12]: 51%
- IC50 ([4]; Homo sapiens, G-361): > 100 µM
- IC50 ([5]; Homo sapiens, MCF7): > 100 µM
- IC50 ([6]; Homo sapiens, K562): > 100 µM
- IC50 ([7]; Homo sapiens): > 100 µM
- IC50 (CDK1/cyclin B): 21 µM
- IC50 (CDK2/cyclin E): 17 µM

SMILES: NCc1ccc(/N=N/c2c(N)n[nH]c2N)cc1 [Compound 17b, 3,5-diamino-4-(4-aminomethyl)phenylazo-pyrazole]
- IC50 (CDK1/cyclin B): > 100 µM
- IC50 (CDK2/cyclin E): > 100 µM
- CDK inhibitory activity (in words) (CDK1 and CDK2): low activity (almost zero)

SMILES: Nc1n[nH]c(N)c1N=Nc1cccc2c1CCCC2 [Compound 30b]
- IC50 [4]: 77 ± 4 µM
- % of viable cells G361 ([4]; at 100 μM): (27 ± 5) %
- IC50 [5]: 81 ± 9 µM
- % of viable cells MCF7 ([5]; at 100 μM): (39 ± 10%)
- IC50 [6]: 55 ± 1 µM
- % of viable cells K562 ([6]; at 100 μM): (26 ± 7) %
- IC50 [7]: 92 ± 5 µM
- % of viable cells HOS ([7]; at 100 μM): (32 ± 6%)
- IC50 (CDK1/cyclin B): > 100 µM
- IC50 (CDK2/cyclin E): > 100 µM
- CDK inhibitory activity (in words) (CDK1 and CDK2): only a weak impact on CDK activity

SMILES: Cn1cnc2c(NCc3ccccc3)nc(NCCO)nc21 [olomoucine, reference compound]
- IC50 at 72 h (in vitro): > 100 µM

SMILES: CC[C@H](CO)Nc1nc(NCc2ccccc2)c2ncn(C(C)C)c2n1 [roscovitine]
- effect on MAPK1 (in words) (MAPK1 [8]): strong effect
- effect on CDK7 (in words) (CDK7): strong effect
